Measurements from PubChem BioAssay (NCI).
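In this assay, cells in 96-well plates receive the compound at five concentrations for 48 hours. Endpoints are linearly interpolated between the surrounding concentrations. GI50 marks 50% less growth. At the TGI there is no net growth.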

How the values were obtained:
Experiment in all cases: NCI tumour cell line growth inhibition, 48 h
DMS 273 small cell lung = system: DMS 273 small cell lung
SNB-78 CNS = system: SNB-78 CNS
XF 498 CNS = system: XF 498 CNS
M19-MEL melanoma = system: M19-MEL melanoma
DMS 114 small cell lung = system: DMS 114 small cell lung
KM20L2 colon = system: KM20L2 colon
RXF-631 renal = system: RXF-631 renal
MDA-N = system: MDA-N
HOP-18 NSCLC = system: HOP-18 NSCLC

Row | SMILES | TGI (DMS 273 small cell lung) [µM] | TGI (SNB-78 CNS) [µM] | TGI (XF 498 CNS) [µM] | TGI (M19-MEL melanoma) [µM] | TGI (DMS 114 small cell lung) [µM] | TGI (KM20L2 colon) [µM] | TGI (RXF-631 renal) [µM] | GI50 (MDA-N) | TGI (MDA-N) | GI50 (SNB-78 CNS) [µM] | GI50 (KM20L2 colon) [µM] | TGI (HOP-18 NSCLC) [µM]
1 | Cc1ccc([N+](=O)[O-])cc1NC(=O)c1cccc([N+](=O)[O-])c1O | 76.4 | 80.7 | 63.2 | 56 | 43.2 | > 100 | – | – | – | – | – | –
2 | Fc1ccccc1C1SCc2nc3ccccc3n21 (configuration not stated) | > 100 | > 100 | – | > 100 | > 100 | – | > 100 | – | – | – | – | –
3 | NC1=C(c2nc(-c3ccccc3)cs2)C(c2ccc(Br)cc2)c2c(c3ccccc3oc2=O)O1 (configuration not stated) | – | – | – | – | – | – | – | 63.7 mg/L | > 150 mg/L | – | – | –
4 | NCCN.NCCN.O=C([O-])CCl.O=C([O-])CCl.[Co+3].[O-][Cl+3]([O-])([O-])[O-] | – | > 100 | – | – | – | > 100 | – | – | – | > 100 | > 100 | –
5 | COc1ccc(S(=O)(=O)N/N=C/c2cc(I)cc([N+](=O)[O-])c2O)cc1OC | > 100 | 65.1 | 51.1 | 99.2 | – | > 100 | > 100 | – | – | – | – | 68.5
6 | COc1ccc(CC(=O)NCCc2ccc(OC)c(OC)c2)cc1Br | > 100 | – | > 100 | – | > 100 | > 100 | – | – | – | – | – | –
7 | Cc1cc(NS(=O)(=O)c2ccc(NC(=O)c3ccc(Cl)c4c(Nc5ccc(S(=O)(=O)N=C(N)N)cc5)c5ccccc5nc34)cc2)no1 | – | > 100 | 98.8 | > 100 | > 100 | > 100 | – | – | – | – | – | –
8 | CN1CC[C@]2(C)c3cc(O)ccc3CC3CCCC1C32C (some centres not stated) | – | > 100 | > 100 | > 100 | > 100 | > 100 | > 100 | – | – | – | – | > 100
9 | CC(C)c1c(O)ccc2c1CCC1C(C)(C)CCCC21C (configuration not stated) | – | – | – | – | – | – | – | – | 32.3 µM | – | – | –
10 | Nc1c([N+](=O)[O-])cc2c3c(cccc13)CC2 | – | – | – | – | – | – | – | – | > 100 µM | – | – | –
11 | COc1cc(C(O)C(=O)c2nc3ccc([N+](=O)[O-])cc3[nH]c2=O)ccc1O (configuration not stated) | > 100 | > 100 | > 100 | > 100 | > 100 | > 100 | – | – | – | – | – | –
12 | CNC(=O)CC1NC(=O)c2csc(n2)-c2ccc(-c3nc(C4=NC(C(=O)N5CCCC5C(N)=O)CO4)cs3)nc2-c2csc(n2)-c2csc(n2)C(C(C)C)NC(=O)CNC(=O)c2csc(n2)C(C(C)C)NC(=O)c2nc1sc2C (configuration not stated) | – | – | – | – | – | – | – | < 0.001 µM | – | – | – | –
13 | CC(C)(CN1CCCCC1)C(=O)/C=C/c1ccc(Cl)cc1 | 13.3 | 11.8 | – | 23.4 | 15.4 | 7.48 | 29.9 | – | – | – | – | 23.1
14 | Cc1c(C(=O)CC(=O)C(=O)Nc2ccc(Cl)cc2)[n+](=O)c2ccccc2n1[O-] | > 100 | > 100 | > 100 | > 100 | > 100 | > 100 | – | – | – | – | – | > 100
15 | COc1ccc(C(=O)/C=C/c2ccc3c(c2)OCO3)c(OCc2ccccc2)c1 | – | – | – | – | – | – | – | – | > 100 µM | – | – | –
16 | C/C=C1/CCC2c3[nH]c4ccccc4c3CCN2C1 (configuration not stated) | > 100 | > 100 | > 100 | > 100 | > 100 | > 100 | – | – | – | – | – | –
17 | C=C1C(=O)OC2C=C(CCC(C)=O)C(C)C(OC(C)=O)CC12 (configuration not stated) | – | 27.4 | 26.1 | 64.7 | – | 16.4 | – | – | – | – | – | 24.1
18 | O=C(O)CCC(NC(=O)c1ccccc1)C(=O)O (configuration not stated) | > 100 | > 100 | > 100 | – | > 100 | > 100 | > 100 | – | – | – | – | > 100
19 | CN(C)CCCN1c2ccccc2C(C)(C)c2ccccc21 | – | – | – | – | – | – | – | – | 27.6 µM | – | – | –

Row | SMILES | TGI (DMS 273 small cell lung) [µM] | TGI (SNB-78 CNS) [µM] | TGI (XF 498 CNS) [µM] | TGI (M19-MEL melanoma) [µM] | TGI (DMS 114 small cell lung) [µM] | TGI (KM20L2 colon) [µM] | TGI (RXF-631 renal) [µM] | GI50 (MDA-N) | TGI (MDA-N) | GI50 (SNB-78 CNS) [µM] | GI50 (KM20L2 colon) [µM] | TGI (HOP-18 NSCLC) [µM]
20 | O=C1CCCC(=O)N1CCc1c[nH]c2ccccc12 | > 100 | > 100 | > 100 | > 100 | > 100 | > 100 | > 100 | – | – | – | – | –
21 | c1ccc2cc3[s+]snc3cc2c1 | > 100 | > 100 | > 100 | > 100 | – | > 100 | > 100 | – | – | – | – | > 100
22 | CN(C)CCNC(=O)c1cccc2[nH]c(-c3cccnc3)nc12 | 74.4 | > 100 | – | 39.8 | – | – | – | – | – | – | – | 84
23 | CCCC/C=C1\CCC(C)(CN(C)C)C1=O (configuration not stated) | – | > 100 | – | 29 | > 100 | > 100 | – | – | – | – | – | > 100
24 | O=C(NCCCCCCNC(=O)OCCSCCn1cc(C(=O)NC(=O)OCc2ccccc2)c(=O)[nH]c1=O)OCCSCCn1cc(C(=O)NC(=O)OCc2ccccc2)c(=O)[nH]c1=O | > 100 | > 100 | > 100 | > 100 | > 100 | > 100 | > 100 | – | – | – | – | –
25 | O=C(O)CCSC(=O)Nc1ccccc1F | > 100 | > 100 | – | – | > 100 | > 100 | – | – | – | – | – | –
26 | O=C1C2C(c3ccccc3)NC(c3ccccc3)C1C(c1ccccc1)NC2c1ccccc1 (configuration not stated) | – | – | – | – | – | – | – | – | > 100 µM | – | – | –
27 | C=C1C(=O)O[C@H]2[C@H](OC(C)=O)[C@@H](C)CCC/C(C)=C/CC[C@@]3(C)O[C@@H]3C[C@@H]12 | – | – | – | – | – | – | – | – | 10.6 µM | – | – | –
28 | O=C1C2C=CC(C2)C(c2ccc(O)cc2)N1O (configuration not stated) | – | > 100 | > 100 | > 100 | – | > 100 | – | – | – | – | – | –
29 | Cc1ccc(NC(=O)C(=O)CC(=O)c2c(C)n([O-])c3ccccc3[n+]2=O)cc1 | 59.6 | > 100 | – | 36.1 | 38.5 | 71.8 | > 100 | – | – | – | – | > 100
30 | O=c1oc2cc(N=Cc3ccc4c(c3)OCO4)ccc2c2ccccc12 | – | – | – | – | – | – | – | – | > 100 µM | – | – | –
31 | O=c1nc(NC(c2ccccc2)(c2ccccc2)c2ccccc2)ccn1CCNCCn1ccc(NC(c2ccccc2)(c2ccccc2)c2ccccc2)nc1=O | 21.6 | – | 31.9 | 21 | 13.5 | 30.1 | – | – | – | – | – | 43.8
32 | Cc1[nH]c(=O)n2c(C)nnc2c1C(=O)Nc1cc(Cl)cc(Cl)c1 | – | 69.6 | – | 91.9 | – | – | – | – | – | – | – | –
33 | C[C@]12CCC(=O)C(O)=C1CC[C@@H]1C2CC[C@]2(C)Nc3c(cnn3-c3ccccc3)CC12 (some centres not stated) | > 100 | > 100 | > 100 | > 100 | – | > 100 | > 100 | – | – | – | – | –
34 | O=C(O)CNS(=O)(=O)c1ccc(NC(=O)CI)cc1 | 38.8 | – | 29.5 | > 100 | – | 54.5 | 32.5 | – | – | – | – | > 100
35 | COC(=O)[C@]12CC=C3O[C@@H]4OC5(CCCCC5)O[C@@H]4C3[C@@H]1C(=O)CCC2=O (some centres not stated) | > 100 | > 100 | > 100 | – | > 100 | > 100 | > 100 | – | – | – | – | > 100
36 | CCN(CC)CCn1c2ccccc2c(=O)c2c(O)ccc(O)c21 | > 100 | > 60.2 | 44.2 | – | 41 | > 100 | > 66.8 | – | 34.4 µM | – | – | –
37 | O=C(O)C1C(C(=O)O)C23CC2(C(=O)O)C2(C(=O)O)CCC3=C3CCCC312 (configuration not stated) | – | – | – | – | – | – | – | – | 89.2 µM | – | – | –
38 | COc1ccccc1C1c2cc3c(cc2OC(O)(CO)C1C(=O)O)OCO3 (configuration not stated) (tested in a mixture with another compound) | > 100 | > 100 | – | > 100 | > 100 | > 100 | – | – | – | – | – | > 100
